Measurements published in publication PMC3522796 (Cancer letters, 2012).
“Also recorded” adds a separate entry of the source. Where two headings read alike, the source gives them in different places.

How the values were obtained:
[1] = system: metastatic malignant melanoma; conditions: Phase III, every 3-week treatment schedule; cited from earlier work
[2] = system: M109 subcutaneous lung tumor; conditions: cited from earlier work; for Antitumor efficacy: at MTD; for Tumor AUC of PX fold greater than Taxol: i.v.
mice = conditions: cited from earlier work
microtubule = conditions: cited from earlier work; for Microtubule assembly: 10 µM
human tumor cell lines = conditions: variety of human tumor cell lines; cited from earlier work
P-glycoprotein (P-gp) = conditions: cited from earlier work
[3] = system: 4T1 mouse mammary carcinoma cells; assay: In-vitro cytotoxicity, MTT assay; assay type: cell-based
tubulin = tubulin (Sus scrofa, UniProt P02554); assay: Tubulin polymerization assay; assay type: biochemical
Sequence of tubulin (P02554 whole entry): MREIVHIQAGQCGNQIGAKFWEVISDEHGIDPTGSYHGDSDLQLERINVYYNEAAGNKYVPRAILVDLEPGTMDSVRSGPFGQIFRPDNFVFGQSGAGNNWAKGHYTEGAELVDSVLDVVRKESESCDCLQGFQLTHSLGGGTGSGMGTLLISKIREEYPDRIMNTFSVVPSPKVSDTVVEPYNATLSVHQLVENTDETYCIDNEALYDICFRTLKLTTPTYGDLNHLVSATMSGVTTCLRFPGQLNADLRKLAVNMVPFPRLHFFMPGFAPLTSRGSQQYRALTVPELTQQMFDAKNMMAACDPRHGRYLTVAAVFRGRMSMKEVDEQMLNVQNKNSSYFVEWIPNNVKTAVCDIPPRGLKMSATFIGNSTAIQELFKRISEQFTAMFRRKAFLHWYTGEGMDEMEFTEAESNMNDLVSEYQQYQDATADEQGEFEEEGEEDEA
Sequence of tubulin (P02550 whole entry partner): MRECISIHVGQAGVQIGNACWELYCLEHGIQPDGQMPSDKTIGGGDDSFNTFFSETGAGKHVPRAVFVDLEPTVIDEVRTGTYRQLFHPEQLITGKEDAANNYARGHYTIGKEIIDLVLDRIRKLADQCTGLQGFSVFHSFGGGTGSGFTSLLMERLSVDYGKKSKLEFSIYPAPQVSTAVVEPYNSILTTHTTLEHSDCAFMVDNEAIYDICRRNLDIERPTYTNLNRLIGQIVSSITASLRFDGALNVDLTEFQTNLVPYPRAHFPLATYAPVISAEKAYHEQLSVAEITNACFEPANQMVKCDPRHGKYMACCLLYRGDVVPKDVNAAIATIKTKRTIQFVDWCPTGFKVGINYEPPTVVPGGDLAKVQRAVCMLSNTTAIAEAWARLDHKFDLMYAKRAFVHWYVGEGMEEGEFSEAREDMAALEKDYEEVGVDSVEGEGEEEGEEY

[4] = rabbit model; cited from earlier work
HeLa cells = conditions: cited from earlier work
human MCF-7 cells = conditions: 72 h incubation; cited from earlier work

For CC/C=C\C/C=C\C/C=C\C/C=C\C/C=C\C/C=C/CCC(=O)O[C@@H](C(=O)O[C@H]1C[C@@]2(O)[C@@H](OC(=O)c3ccccc3)C3[C@](C)(C(=O)[C@H](OC(C)=O)C(=C1C)C2(C)C)[C@@H](O)C[C@H]1OC[C@@]31OC(C)=O)[C@@H](NC(=O)c1ccccc1)c1ccccc1 (stereo partly drawn) [DHA-PX, docosahexaenoic acid-PX], the Overall survival [1] is listed as “not superior to dacarbazine”, the Antitumor efficacy [2] is listed as “completely eliminated measurable tumors” and the “Tumor AUC of PX fold greater than Taxol” value ([2]; equimolar dose) is listed as 1.71 fold. For the same compound, the “Tumor AUC of PX fold greater than Taxol” value ([2]; equitoxic dose) was 5.79 fold, the “MTD fold higher compared to Taxol” value (mice) was 4.4 fold and the Microtubule assembly (microtubule) was “not able to assemble microtubule”. The Microtubule assembly activity (microtubule) was “does not have microtubule assembly activity”, the Cytotoxic concentration range (human tumor cell lines) was “µM concentration range” and the P-gp substrate (P-glycoprotein (P-gp)) was “remains a P-gp substrate”.

For CC(=O)O[C@H]1C(=O)[C@@]2(C)[C@H]([C@H](OC(=O)c3ccccc3)[C@]3(O)C[C@H](OC(=O)[C@H](O)[C@@H](NC(=O)c4ccccc4)c4ccccc4)C(C)=C1C3(C)C)[C@]1(OC(C)=O)CO[C@@H]1C[C@@H]2O [PX, Paclitaxel], the IC50 ([3]; Mus musculus, 4T1, 48 h) is given as 0.038 ± 0.001 µM, the Antitumor efficacy [2] is given as “did not result in even partial tumor regression” and the “Vmax of tubulin polymerization” value (tubulin; 10 µM, 37°C, 3 mg/ml tubulin, standard control 25.3 ± 3.2) is given as 45.0 ± 3.6 mOD/min. The “Effect on tubulin polymerization” value (tubulin; 10 µM, compared to control) was “could stabilize microtubule proteins”, the Cytotoxic concentration range (human tumor cell lines) was “nM range” and the P-gp substrate (P-glycoprotein (P-gp)) was “substrate of P-glycoprotein”.

In the case of CCCCCCCCC=CCCCCCCCC(=O)OC(C(=O)OC1CC2(O)C(OC(=O)c3ccccc3)C3C4(OC(C)=O)COC4CC(O)C3(C)C(=O)C(OC(C)=O)C(=C1C)C2(C)C)C(NC(=O)c1ccccc1)c1ccccc1 (stereo not drawn) [2’-oleate-PX], the “Pharmacokinetics compared to PX formulated in Cremophor EL/Ethanol” value [4] is given as “significantly greater AUC, higher Cmax, and lower systemic clearance”, the IC50 (HeLa cells; 24 h incubation, in lipid emulsions) is given as 5.5 µM and the IC50 (HeLa cells; 48 h incubation) is given as 0.5 µM. The IC50 (HeLa cells; 72 h incubation, in lipid emulsions) was 0.15 µM and the IC50 (HeLa cells; 96 h incubation, in lipid emulsions) was 0.1 µM.

For “2’-behenoyl-paclitaxel [Formulation C22-PX]”, the “IC50 fold higher than PX” value ([3]; 4T1 cells) was “about 8 fold”, the IC50 ([3]; 4T1 cells, MTT, 48 h) was 0.282 ± 0.042 µM and the “Effect on tubulin polymerization” value (tubulin; 5 µM, compared to control) was “no effect on tubulin polymerization”. The “Effect on tubulin polymerization” value (tubulin; 10 µM, compared to control) was “no effect on tubulin polymerization; also recorded: no microtubule activity” and the “Effect on tubulin polymerization” value (tubulin; 20 µM, compared to control (p < 0.01)) was “some tubulin polymerization activity”.

In the case of CCCCCCCCCCCCCCC(Br)C(=O)OC(C(=O)OC1CC2(O)C(OC(=O)c3ccccc3)C3C4(OC(C)=O)COC4CC(O)C3(C)C(=O)C(OC(C)=O)C(=C1C)C2(C)C)C(NC(=O)c1ccccc1)c1ccccc1 (stereo not drawn) [2’-α-bromohexadecanoyl-PX], the “Fold less potent compared to PX” value (human MCF-7 cells) is given as 70 fold.

For CCCCCC=CCC=CCCCCCCCC(=O)OC(C(=O)OC1CC2(O)C(OC(=O)c3ccccc3)C3C4(OC(C)=O)COC4CC(O)C3(C)C(=O)C(OC(C)=O)C(=C1C)C2(C)C)C(NC(=O)c1ccccc1)c1ccccc1 (stereo not drawn) [2’-linoleic acid-PX], the Microtubule assembly (microtubule) is given as “not able to assemble microtubule”.
